Source: patent US20190070182A1, “USES OF PYRIMIDO-PYRIDAZINONES TO TREAT CANCER” (Asana Biosciences, LLC, priority 2015, published 2019)

Columns and labels:
[1] = system: Pfeiffer (DLBCL cell line); experiment: caspase 3/7 apoptosis assay; type: cell-based; settings: Homo sapiens, 24-hour treatment (FIG. 1), read-out: EC50, induced apoptosis (caspase 3/7 assay)
HCT116 = experiment: antiproliferative activity, solid tumor cell line; type: cell-based; settings: Homo sapiens, HCT-116; HCT116, Colon
Description: (§1) Example 2. The Anti-Cancer Activity of ASN002 was Also Evaluated in Many Solid Tumor Cell Lines.

JEG3 = experiment: antiproliferative activity, solid tumor cell line; type: cell-based; settings: Homo sapiens, JEG-3; JEG3, Placenta
Description: as §1

MKN1 = experiment: antiproliferative activity, solid tumor cell line; type: cell-based; settings: Homo sapiens, MKN-1; MKN1, Gastric
Description: as §1

SW480 = experiment: antiproliferative activity, solid tumor cell line; type: cell-based; settings: Homo sapiens; SW480, Colon
Description: as §1

AsPC1 = experiment: antiproliferative activity, solid tumor cell line; type: cell-based; settings: Homo sapiens; AsPC1, Pancreas
Description: as §1

HepG2 = experiment: antiproliferative activity, solid tumor cell line; type: cell-based; settings: Homo sapiens; HepG2, Liver
Description: as §1

SKHEP1 = experiment: antiproliferative activity, solid tumor cell line; type: cell-based; settings: Homo sapiens, SK-HEP1; SKHEP1, Endothelial
Description: as §1

HCC1954 = experiment: antiproliferative activity, solid tumor cell line; type: cell-based; settings: Homo sapiens; HCC1954, Breast
Description: as §1

SKOV3 = experiment: antiproliferative activity, solid tumor cell line; type: cell-based; settings: Homo sapiens, SK-OV-3; SKOV3, Ovarian
Description: as §1

CFPac1 = experiment: antiproliferative activity, solid tumor cell line; type: cell-based; settings: Homo sapiens, CFPAC-1; CFPac1, Pancreas
Description: as §1

H1581 = experiment: antiproliferative activity, solid tumor cell line; type: cell-based; settings: Homo sapiens, NCI-H1581; H1581, Lung
Description: as §1

KE39 = experiment: antiproliferative activity, solid tumor cell line; type: cell-based; settings: KE39, Gastric
Description: as §1

MDAMB453 = experiment: antiproliferative activity, solid tumor cell line; type: cell-based; settings: Homo sapiens, MDA-MB-453; MDAMB453, Breast
Description: as §1

LoVo = experiment: antiproliferative activity, solid tumor cell line; type: cell-based; settings: Homo sapiens, Colon
Description: as §1

HT1197 = experiment: antiproliferative activity, solid tumor cell line; type: cell-based; settings: Homo sapiens; HT1197, Bladder
Description: as §1

HUG1N = experiment: antiproliferative activity, solid tumor cell line; type: cell-based; settings: Gasrtic
Description: as §1

TCCSUP = experiment: antiproliferative activity, solid tumor cell line; type: cell-based; settings: Homo sapiens, TCC-SUP, Bladder
Description: as §1

MDA-MB-231 = experiment: antiproliferative activity, solid tumor cell line; type: cell-based; settings: Homo sapiens; MDA-MB-231, Breast
Description: as §1

J82 = experiment: antiproliferative activity, solid tumor cell line; type: cell-based; settings: Homo sapiens; J82, Bladder
Description: as §1

HeLa = experiment: antiproliferative activity, solid tumor cell line; type: cell-based; settings: Homo sapiens, Cervical
Description: as §1

Hec1A = experiment: antiproliferative activity, solid tumor cell line; type: cell-based; settings: Homo sapiens, HEC-1-A, Endometrial
Description: as §1

HCC1937 = experiment: antiproliferative activity, solid tumor cell line; type: cell-based; settings: Homo sapiens; HCC1937, Breast
Description: as §1

Y79 = experiment: antiproliferative activity, solid tumor cell line; type: cell-based; settings: Homo sapiens; Y79, Retiblastoma
Description: as §1

5637 = experiment: antiproliferative activity, solid tumor cell line; type: cell-based; settings: 5637, Bladder
Description: as §1

BT20 = experiment: antiproliferative activity, solid tumor cell line; type: cell-based; settings: Homo sapiens, BT-20; BT20, Breast
Description: as §1

H1975 = experiment: antiproliferative activity, solid tumor cell line; type: cell-based; settings: Homo sapiens, NCI-H1975; H1975, Lung
Description: as §1

HCC1806 = experiment: antiproliferative activity, solid tumor cell line; type: cell-based; settings: Homo sapiens; HCC1806, Breast
Description: as §1

MFE296 = experiment: antiproliferative activity, solid tumor cell line; type: cell-based; settings: Homo sapiens, MFE-296; MFE296, Endometrial
Description: as §1

BT474 = experiment: antiproliferative activity, solid tumor cell line; type: cell-based; settings: Homo sapiens, BT-474; BT474, Breast
Description: as §1

BxPC3 = experiment: antiproliferative activity, solid tumor cell line; type: cell-based; settings: Homo sapiens, BXPC-3; BxPC3, Pancreas
Description: as §1

Colo205 = experiment: antiproliferative activity, solid tumor cell line; type: cell-based; settings: Homo sapiens, COLO 205; Colo205, Colon
Description: as §1

A549 = experiment: antiproliferative activity, solid tumor cell line; type: cell-based; settings: Homo sapiens; A549, Lung
Description: as §1

MFM-223 = experiment: antiproliferative activity, solid tumor cell line; type: cell-based; settings: Homo sapiens; MFM-223, Breast
Description: as §1

C33A = experiment: antiproliferative activity, solid tumor cell line; type: cell-based; settings: Homo sapiens, C-33-A, Cervical
Description: as §1

MDAMB468 = experiment: antiproliferative activity, solid tumor cell line; type: cell-based; settings: Homo sapiens, MDA-MB-468; MDAMB468, Breast
Description: as §1

U87MG = experiment: antiproliferative activity, solid tumor cell line; type: cell-based; settings: Homo sapiens, U-87 MG, Glioblastoma
Description: as §1

A375 = experiment: antiproliferative activity, solid tumor cell line; type: cell-based; settings: Homo sapiens, A-375; A375, Melanoma
Description: as §1

H1299 = experiment: antiproliferative activity, solid tumor cell line; type: cell-based; settings: Homo sapiens, NCI-H1299; H1299, Lung
Description: as §1

HT29 = experiment: antiproliferative activity, solid tumor cell line; type: cell-based; settings: Homo sapiens, HT-29; HT29, Colon
Description: as §1

MIAPACA2 = experiment: antiproliferative activity, solid tumor cell line; type: cell-based; settings: Homo sapiens, MIA PaCa-2; MIAPACA2, Pancreas
Description: as §1

SKMEL28 = experiment: antiproliferative activity, solid tumor cell line; type: cell-based; settings: Homo sapiens, SK-MEL-28; SKMEL28, Melanoma
Description: as §1

SW780 = experiment: antiproliferative activity, solid tumor cell line; type: cell-based; settings: Homo sapiens; SW780, Bladder
Description: as §1

DU145 = experiment: antiproliferative activity, solid tumor cell line; type: cell-based; settings: Homo sapiens, DU-145; DU145, Prostate
Description: as §1

PC3 = experiment: antiproliferative activity, solid tumor cell line; type: cell-based; settings: Homo sapiens, PC-3; PC3, Prostate
Description: as §1

EAhy296 = experiment: antiproliferative activity, solid tumor cell line; type: cell-based; settings: EAhy296, Endothelial
Description: as §1

CAOV3 = experiment: antiproliferative activity, solid tumor cell line; type: cell-based; settings: Homo sapiens, Caov-3; CAOV3, Ovary
Description: as §1

MCF7 = experiment: antiproliferative activity, solid tumor cell line; type: cell-based; settings: Homo sapiens; MCF7, Breast
Description: as §1

ZR75 = experiment: antiproliferative activity, solid tumor cell line; type: cell-based; settings: ZR75, Breast
Description: as §1

SKMEL2 = experiment: antiproliferative activity, solid tumor cell line; type: cell-based; settings: Homo sapiens, SK-MEL-2; SKMEL2, Melanoma
Description: as §1

SCaBER = experiment: antiproliferative activity, solid tumor cell line; type: cell-based; settings: Homo sapiens, Bladder
Description: as §1

UMUC3 = experiment: antiproliferative activity, solid tumor cell line; type: cell-based; settings: Homo sapiens; UMUC3, Bladder
Description: as §1

LNCaP = experiment: antiproliferative activity, solid tumor cell line; type: cell-based; settings: Homo sapiens, Prostate
Description: as §1

MDAMB361 = experiment: antiproliferative activity, solid tumor cell line; type: cell-based; settings: Homo sapiens, MDA-MB-361; MDAMB361, Breast
Description: as §1

T24 = experiment: antiproliferative activity, solid tumor cell line; type: cell-based; settings: Homo sapiens, T-24; T24, Bladder
Description: as §1

SW1990 = experiment: antiproliferative activity, solid tumor cell line; type: cell-based; settings: Homo sapiens; SW1990, Pancreas
Description: as §1

Caki1 = experiment: antiproliferative activity, solid tumor cell line; type: cell-based; settings: Homo sapiens, CAKI-1; Caki1, Kidney
Description: as §1

H460 = experiment: antiproliferative activity, solid tumor cell line; type: cell-based; settings: Homo sapiens, NCI-H460; H460, Lung
Description: as §1

HT1376 = experiment: antiproliferative activity, solid tumor cell line; type: cell-based; settings: Homo sapiens, HT-1376; HT1376, Bladder
Description: as §1

[2] = system: ibrutinib-resistant variant of Pfeiffer ("Ibrutinib-R"); experiment: cell proliferation, ibrutinib-resistant Pfeiffer; type: cell-based; settings: Homo sapiens, pools of resistant cells
Description: (§2) This activity of ASN002 was assessed using a diffuse large B-cell lymphoma (DLBCL) cell line, Pfeiffer (“Parental”); and an ibrutinib-resistant variant of the same cell line (“Ibrutinib-R”), which was developed by growing the cells in the presence of increasing concentrations of ibrutinib. Pools of ibrutinib-resistant cells were tested in this study. The drug idelalisib (which was approved by the FDA in […] for the treatment of B-cell blood cancers) was used for comparison as a reference compound. The data are set forth in Table A (IC50 is the half maximal inhibitory concentration).

[3] = system: DLBCL xenograft derived from Pfeiffer cell line; experiment: DLBCL xenograft mouse model (Pfeiffer); type: in vivo; settings: Pfeiffer cell line (FIG. 3)
[4] = system: human erythroleukemia model derived from HEL cell line; experiment: mouse model of human erythroleukemia (HEL); type: in vivo; settings: HEL cell line (FIG. 6)
[5] = system: DLBCL xenograft derived from SU-DHL-6 cell line; experiment: DLBCL xenograft mouse model (SU-DHL-6); type: in vivo; settings: SU-DHL-6 cell line (FIG. 4)
[6] = system: hematological malignant cell lines (leukemia, lymphoma, multiple myelomas); experiment: antiproliferative activity, hematological malignant cell line panel; type: cell-based; settings: cell line panel representing leukemia, multiple myelomas (FIG. 2)
[7] = system: Pfeiffer ("Parental") DLBCL cell line; experiment: cell proliferation, Pfeiffer parental; type: cell-based; settings: Homo sapiens
Description: as §2

[8] = system: multiple myeloma model derived from H929 cell line; experiment: mouse model of multiple myeloma (H929); type: in vivo; settings: H929 cell line (FIG. 5)

N#CCC1CCN(c2nc(Nc3ccc(N4CCC(O)CC4)cc3)c3c(=O)[nH]ncc3n2)CC1 [ASN002, 2-(1-(4-((4-(4-hydroxypiperidin-1-yl)phenyl)amino)-5-oxo-5,6-dihydropyrimido[4,5-d]pyridazin-2-yl)piperidin-4-yl)acetonitrile]
EC50 [1]: 120 nM
IC50 (HCT116): 430 nM
IC50 (JEG3): > 10000 nM
IC50 (MKN1): 880 nM
IC50 (SW480): 600 nM
IC50 (AsPC1): 840 nM
IC50 (HepG2): 240 nM
IC50 (SKHEP1): > 10000 nM
IC50 (HCC1954): > 10000 nM
IC50 (SKOV3): 730 nM
IC50 (CFPac1): 850 nM
IC50 (H1581): 380 nM
IC50 (KE39): 860 nM
IC50 (MDAMB453): 1740 nM
IC50 (LoVo): 150 nM
IC50 (HT1197): 540 nM
IC50 (HUG1N): 810 nM
IC50 (TCCSUP): 340 nM
IC50 (MDA-MB-231): 770 nM
IC50 (J82): 2750 nM
IC50 (HeLa): 770 nM
IC50 (Hec1A): 660 nM
IC50 (HCC1937): > 10000 nM
IC50 (Y79): > 10000 nM
IC50 5637: 420 nM
IC50 (BT20): 2130 nM
IC50 (H1975): 850 nM
IC50 (HCC1806): 1630 nM
IC50 (MFE296): 880 nM
IC50 (BT474): > 10000 nM
IC50 (BxPC3): 660 nM
IC50 (Colo205): 610 nM
IC50 (A549): 460 nM
IC50 (MFM-223): 400 nM
IC50 (C33A): 500 nM
IC50 (MDAMB468): 1460 nM
IC50 (U87MG): > 10000 nM
IC50 (A375): 610 nM
IC50 (H1299): > 10000 nM
IC50 (HT29): 300 nM
IC50 (MIAPACA2): 2770 nM
IC50 (SKMEL28): > 10000 nM
IC50 (SW780): > 10000 nM
IC50 (DU145): 990 nM
IC50 (PC3): 1980 nM
IC50 (EAhy296): 1800 nM
IC50 (CAOV3): 420 nM
IC50 (MCF7): 600 nM
IC50 (ZR75): 420 nM
IC50 (SKMEL2): 1030 nM
IC50 (SCaBER): 450 nM
IC50 (UMUC3): 2280 nM
IC50 (LNCaP): 1070 nM
IC50 (MDAMB361): 490 nM
IC50 (T24): 440 nM
IC50 (SW1990): 1620 nM
IC50 (Caki1): 330 nM
IC50 (H460): 910 nM
IC50 (HT1376): 90 nM
IC50 [2]: 320 nM
tumor growth [3]: inhibited tumor growth
hind limb paralysis [4]: delayed the hind limb paralysis
tumor growth [5]: inhibited tumor growth
antiproliferative activity [6]: strong antiproliferative activity
IC50 [7]: 80 nM
tumor growth [8]: inhibited tumor growth

C=CC(=O)N1CCC[C@@H](n2nc(-c3ccc(Oc4ccccc4)cc3)c3c(N)ncnc32)C1 [Ibrutinib, ibrutinib]
IC50 [2]: 4500 nM
IC50 [7]: 270 nM

CC[C@H](Nc1ncnc2[nH]cnc12)c1nc2cccc(F)c2c(=O)n1-c1ccccc1 [Idelalisib, idelalisib]
IC50 [2]: > 10000 nM
IC50 [7]: 130 nM
